In patent US8835377B2, “Oral delivery of peptide pharmaceutical compositions” (UGP Therapeutics, Inc., priority 2004, dated 2014):

Test: Pharmacokinetics after oral capsules (sCT plus Dmt-DALDA with citric acid and lauroyl carnitine), non-enteric coated or enteric coated, in fasted beagle dogs (plasma; ELISA for sCT, HPLC-MS for Dmt-DALDA)
Type: in vivo
Method: A second series of tests was carried out, as noted above, using beagle dogs. […] In the experiments represented in FIGS. 2A and 2B, size 00 […] capsules were each filled with 758 mg of a powdered blend consisting of citric acid (643 mg), lauroyl carnitine (66 mg), talc (33 mg), salmon calcitonin (sCT) (13 mg) and Dmt-DALDA (2.4 mg). Half of the capsules were coated with an enteric coating solution of L30D-55, while the remaining 50% of the capsules were not coated. Four fasted dogs were each given 1 uncoated capsule, and 2 weeks later they were each given an enteric coated capsule. After administration of each capsule, samples of blood were taken at 15 minute intervals from an indwelling catheter for up to 4 hours. The blood samples were centrifuged and the resulting plasma supernatants were stored frozen at −20° C. The plasma samples were subsequently analyzed for sCT by a direct ELISA, and for Dmt-DALDA by HPLC-mass spectrometry performed as set forth in Wan, H. and Desiderio, D., Quantitation of [DMT^1] DALDA in ovine plasma by on-line liquid chromatography/quadrapole time-of-flight mass spectrometry, Rapid Communications in Mass Spectrometry, 2003; 17, 538-546, the contents of which are incorporated herein by reference.
The results summarized in FIGS. 2A and 2B as plasma peptide concentration normalized to a 1 mg dose as a function of time relative to the average Tmax, (i.e., the time at which the maximum amount of peptide was detected) indicate that both peptides, i.e., sCT and Dmt-DALDA, were detected in dogs given uncoated or enteric coated capsules. […] Table DI (below) sets forth the values upon which the curves in FIGS. 2A and 2B are based. The results are summarized in the tables as plasma peptide concentration normalized to a 1 mg dose as a function of time. Table III, moreover, provides the standard deviations for the data obtained regarding each of the test dogs, which standard deviations are also indicated in FIGS. 2A and 2B.
Table IV (below) summarizes the pharmacokinetic parameters in dogs of orally administered sCT and Dmt-DALDA when administered in non-enteric coated versus enteric coated capsules. Peptide was not detected from 1 dog in each group due to (a) Dog 3 vomiting the uncoated capsule and (b) delayed gastric emptying in Dog 2 provided with an enteric coated capsule. Cmax and AUC are as defined with regard to Table H above.

Cc1cc(O)cc(C)c1C[C@H](N)C(=O)N[C@H](CCCNC(=N)N)C(=O)N[C@@H](Cc1ccccc1)C(=O)N[C@@H](CCCCN)C(N)=O [Dmt-DALDA, H-2,6-dimethyltyrosine-D-Arginine-Phenylalanine-Lysine-NH2]
plasma peptide concentration normalized to a 1 mg dose (enteric coated capsule, Dog 3, 45 min): 0 pg/mL
plasma peptide concentration normalized to a 1 mg dose (enteric coated capsule, Dog 3, 60 min): 0 pg/mL
plasma peptide concentration normalized to a 1 mg dose (enteric coated capsule, Dog 3, 75 min): 0 pg/mL
plasma peptide concentration normalized to a 1 mg dose (enteric coated capsule, Dog 3, 90 min): 0 pg/mL
plasma peptide concentration normalized to a 1 mg dose (enteric coated capsule, Dog 3, 105 min): 0 pg/mL
plasma peptide concentration normalized to a 1 mg dose (enteric coated capsule, Dog 3, 120 min): 0 pg/mL
plasma peptide concentration normalized to a 1 mg dose (enteric coated capsule, Dog 3, 135 min): 21494 pg/mL
plasma peptide concentration normalized to a 1 mg dose (enteric coated capsule, Dog 3, 150 min): 19378 pg/mL
plasma peptide concentration normalized to a 1 mg dose (enteric coated capsule, Dog 3, 165 min): 12697 pg/mL
plasma peptide concentration normalized to a 1 mg dose (enteric coated capsule, Dog 3, 180 min): 9100 pg/mL
plasma peptide concentration normalized to a 1 mg dose (enteric coated capsule, Dog 3, 195 min): 4876 pg/mL
plasma peptide concentration normalized to a 1 mg dose (enteric coated capsule, Dog 4, 0 min): 0 pg/mL
plasma peptide concentration normalized to a 1 mg dose (enteric coated capsule, Dog 4, 15 min): 0 pg/mL
plasma peptide concentration normalized to a 1 mg dose (enteric coated capsule, Dog 4, 30 min): 0 pg/mL
plasma peptide concentration normalized to a 1 mg dose (enteric coated capsule, Dog 4, 45 min): 0 pg/mL
plasma peptide concentration normalized to a 1 mg dose (enteric coated capsule, Dog 4, 60 min): 0 pg/mL
plasma peptide concentration normalized to a 1 mg dose (enteric coated capsule, Dog 4, 75 min): 0 pg/mL
plasma peptide concentration normalized to a 1 mg dose (enteric coated capsule, Dog 4, 90 min): 0 pg/mL
plasma peptide concentration normalized to a 1 mg dose (enteric coated capsule, Dog 4, 105 min): 4577 pg/mL
plasma peptide concentration normalized to a 1 mg dose (enteric coated capsule, Dog 4, 120 min): 12116 pg/mL
plasma peptide concentration normalized to a 1 mg dose (enteric coated capsule, Dog 4, 135 min): 10207 pg/mL
plasma peptide concentration normalized to a 1 mg dose (enteric coated capsule, Dog 4, 150 min): 6307 pg/mL
plasma peptide concentration normalized to a 1 mg dose (enteric coated capsule, Dog 4, 165 min): 5158 pg/mL
plasma peptide concentration normalized to a 1 mg dose (enteric coated capsule, Dog 4, 180 min): 3884 pg/mL
plasma peptide concentration normalized to a 1 mg dose (enteric coated capsule, Dog 4, 195 min): 2896 pg/mL
plasma peptide concentration normalized to a 1 mg dose (non-enteric coated capsule, Dog 1, 45 min): 5104 pg/mL
plasma peptide concentration normalized to a 1 mg dose (non-enteric coated capsule, Dog 1, 60 min): 4066 pg/mL
plasma peptide concentration normalized to a 1 mg dose (non-enteric coated capsule, Dog 1, 75 min): 2407 pg/mL
plasma peptide concentration normalized to a 1 mg dose (non-enteric coated capsule, Dog 1, 90 min): 2780 pg/mL
plasma peptide concentration normalized to a 1 mg dose (non-enteric coated capsule, Dog 1, 105 min): 1938 pg/mL
plasma peptide concentration normalized to a 1 mg dose (non-enteric coated capsule, Dog 1, 120 min): 1627 pg/mL
plasma peptide concentration normalized to a 1 mg dose (non-enteric coated capsule, Dog 1, 135 min): 1158 pg/mL
plasma peptide concentration normalized to a 1 mg dose (non-enteric coated capsule, Dog 1, 150 min): 830 pg/mL
plasma peptide concentration normalized to a 1 mg dose (non-enteric coated capsule, Dog 1, 165 min): 913 pg/mL
plasma peptide concentration normalized to a 1 mg dose (non-enteric coated capsule, Dog 1, 180 min): 705 pg/mL
plasma peptide concentration normalized to a 1 mg dose (non-enteric coated capsule, Dog 1, 195 min): 581 pg/mL
plasma peptide concentration normalized to a 1 mg dose (non-enteric coated capsule, Dog 1, 210 min): 544 pg/mL
plasma peptide concentration normalized to a 1 mg dose (non-enteric coated capsule, Dog 1, 225 min): 436 pg/mL
plasma peptide concentration normalized to a 1 mg dose (non-enteric coated capsule, Dog 1, 240 min): 402 pg/mL
plasma peptide concentration normalized to a 1 mg dose (non-enteric coated capsule, Dog 2, 45 min): 5602 pg/mL
plasma peptide concentration normalized to a 1 mg dose (non-enteric coated capsule, Dog 2, 60 min): 5726 pg/mL
plasma peptide concentration normalized to a 1 mg dose (non-enteric coated capsule, Dog 2, 75 min): 4523 pg/mL
plasma peptide concentration normalized to a 1 mg dose (non-enteric coated capsule, Dog 2, 90 min): 3568 pg/mL
plasma peptide concentration normalized to a 1 mg dose (non-enteric coated capsule, Dog 2, 105 min): 3444 pg/mL
plasma peptide concentration normalized to a 1 mg dose (non-enteric coated capsule, Dog 2, 120 min): 2614 pg/mL
plasma peptide concentration normalized to a 1 mg dose (non-enteric coated capsule, Dog 2, 135 min): 2697 pg/mL
plasma peptide concentration normalized to a 1 mg dose (non-enteric coated capsule, Dog 2, 150 min): 2407 pg/mL
plasma peptide concentration normalized to a 1 mg dose (non-enteric coated capsule, Dog 2, 165 min): 2531 pg/mL
plasma peptide concentration normalized to a 1 mg dose (non-enteric coated capsule, Dog 2, 180 min): 2075 pg/mL
plasma peptide concentration normalized to a 1 mg dose (non-enteric coated capsule, Dog 2, 195 min): 1328 pg/mL
plasma peptide concentration normalized to a 1 mg dose (non-enteric coated capsule, Dog 2, 210 min): 1867 pg/mL
plasma peptide concentration normalized to a 1 mg dose (non-enteric coated capsule, Dog 2, 225 min): 1535 pg/mL
plasma peptide concentration normalized to a 1 mg dose (non-enteric coated capsule, Dog 2, 240 min): 1494 pg/mL
plasma peptide concentration normalized to a 1 mg dose (non-enteric coated capsule, Dog 4, 45 min): 5788 pg/mL
plasma peptide concentration normalized to a 1 mg dose (non-enteric coated capsule, Dog 4, 60 min): 4481 pg/mL
plasma peptide concentration normalized to a 1 mg dose (non-enteric coated capsule, Dog 4, 75 min): 2934 pg/mL
plasma peptide concentration normalized to a 1 mg dose (non-enteric coated capsule, Dog 4, 90 min): 2382 pg/mL
plasma peptide concentration normalized to a 1 mg dose (non-enteric coated capsule, Dog 4, 105 min): 3054 pg/mL
plasma peptide concentration normalized to a 1 mg dose (non-enteric coated capsule, Dog 4, 120 min): 1759 pg/mL
plasma peptide concentration normalized to a 1 mg dose (non-enteric coated capsule, Dog 4, 135 min): 1627 pg/mL
plasma peptide concentration normalized to a 1 mg dose (non-enteric coated capsule, Dog 4, 150 min): 1544 pg/mL
plasma peptide concentration normalized to a 1 mg dose (non-enteric coated capsule, Dog 4, 165 min): 1324 pg/mL
plasma peptide concentration normalized to a 1 mg dose (non-enteric coated capsule, Dog 4, 180 min): 1191 pg/mL
plasma peptide concentration normalized to a 1 mg dose (non-enteric coated capsule, Dog 4, 195 min): 851 pg/mL
plasma peptide concentration normalized to a 1 mg dose (non-enteric coated capsule, Dog 4, 210 min): 722 pg/mL
plasma peptide concentration normalized to a 1 mg dose (non-enteric coated capsule, Dog 4, 225 min): 672 pg/mL
plasma peptide concentration normalized to a 1 mg dose (non-enteric coated capsule, Dog 4, 240 min): 556 pg/mL
